# Measurements published in US20110104159A1, “COMPOSITIONS AND METHODS FOR TREATING, CONTROLLING, REDUCING, AMELIORATING, OR PREVENTING ALLERGY” (priority 2006, published 2011).
# Several values for one entry are separate records, joined by “and”; a condition that tells them apart may be missing. Equal values may be shown once.
# How the values were obtained:
# [1] = tested on: rabbit paracentesis model; assay: Pupillary diameter measurement, rabbit paracentesis model; format: in vivo; details: individual eye; for Pupillary diameter T2: −5 min: 5 min before first paracentesis; for Pupillary diameter T3: +115 min: 5 min before second paracentesis; for Pupillary diameter Δ(T3 − T1): +115 min minus −180 min; for Pupillary diameter T1: −180 min: basal
# Method: (§1) Each rabbit was placed in a restraint device and tagged with the alphanumeric code. The formulations were instilled (50 μl) into the conjunctival sac of both eyes 180, 120, 90 and 30 min before the first paracentesis; then 15, 30, 90 min after the first paracentesis. To perform the first paracentesis the animals were anaesthetized by intravenous injection of 5 mg/kg Zoletil® (Virbac; 2.5 mg/kg tiletamine HCl and 2.5 mg/kg zolazepam HCl) and one drop of local anesthetic (Novesina®, Novartis) was administered to the eye. Anterior chamber paracentesis was performed with a 26 G needle attached to a tuberculin syringe; the needle was introduced into the anterior chamber through the cornea, taking care not to damage the tissues. Two hours after the first paracentesis, the animals were sacrificed with 0.4 ml Tanax® (Intervet International B.V.) and the second paracentesis was performed. About 100 μl of aqueous humor were removed at the second paracentesis. Aqueous humor was immediately split in four aliquots and stored at −80° C. until analysis. Then both eyes were enucleated and the iris-ciliary body was carefully excised, placed in polypropylene tubes, and stored at −80° C. until analysis.
# The pupillary diameter of both eyes was measured with a Castroviejo caliper 180 min and 5 min before the first paracentesis and 5 min before the second paracentesis.
# [2] = tested on: rabbit paracentesis model; assay: Clinical evaluation by slit lamp (clinical score), rabbit paracentesis model; format: in vivo; design: key to Clinical Score −180 min / Clinical Score −5 min / Clinical Score +115 min: 0: normal; 1: discrete dilatation of iris and conjunctival vessels; 2: moderate dilatation of iris and conjunctival vessels; 3: intense iridal hyperemia with flare in the anterior chamber; 4: intense iridal hyperemia with flare in the anterior chamber and presence of fibrinous exudates; details: for Clinical Score −5 min: 5 min before first paracentesis; for Clinical Score −5 min / Clinical Score +115 min / Clinical Score −180 min: individual eye, scale 0-4; for Clinical Score +115 min: 5 min before second paracentesis; for Clinical Score −180 min: basal
# PGE2 = assay: Prostaglandin E2 (PGE2) measurement in aqueous humor; format: in vivo, Rabbit; details: for PGE2 in aqueous humor at the second paracentesis, Mean: group mean; for PGE2 in aqueous humor at the second paracentesis: individual eye sample
# Method: as §1
# For the quantitative determination of PGE2 in the aqueous humor we used the PGE2 Immunoassay kit (R&D Systems; Cat. No. KGE004; Lot. No. 240010). Eleven microliters or 16 μl of aqueous humor were diluted to 110 μl or 160 μl with the calibrator diluent solution provided with the kit. One hundred microliters of samples and of standards were load into a 96-well plate and recorded in a plate layout. Samples were treated following the assay procedure described in the kit. A microplate reader (GDV, Italy; model DV 990 B/V6) set at 450 nm (wavelength correction at 540 nm) was used for making the calibration and analyzing the samples.
# [3] = tested on: protein concentration in the aqueous humor; assay: Protein measurement in aqueous humor; format: in vivo, Rabbit; details: for Protein in aqueous humor at the second paracentesis, Mean: group mean; for Protein in aqueous humor at the second paracentesis: individual eye sample
# Method: as §1
# For protein concentration determination in the aqueous humor we used the Protein Quantification Kit (Fluka; Cat. No. 77371; Lot. No. 1303129). Five microliters of aqueous humor were diluted to 100 μl with water. Twenty microliters of samples and of standards were load into a 96-well plate and recorded in a plate layout. Samples were treated following the assay procedure described in the kit. A microplate reader (GDV, Italy; model DV 990 B/V6) set at 670 nm was used for making the calibration and analyzing the samples.
# leukocytes (PMN) = assay: Leukocytes (PMN) measurement in aqueous humor; format: in vivo, Rabbit; details: for PMN in aqueous humor at the second paracentesis, Mean: group mean; for PMN in aqueous humor at the second paracentesis: individual eye sample
# Method: as §1
# For the determination of the number of leukocytes we used a haemocytometer (Improved Neubauer Chamber; Brigth-line, Hausser Scientific) and a Polyvar 2 microscope (Reichert-Jung).
# MPO = assay: Myeloperoxidase (MPO) activity in iris-ciliary body; format: in vivo, Rabbit; details: for Mean MPO Unit/g (MPO activity in iris-ciliary body samples): group mean, after the second paracentesis; for MPO Unit/g (raw data of MPO activity in iris-ciliary body samples): individual eyes (DX/SX) of rabbits, samples collected after the second paracentesis
# Method: 2.3.2.1 Phosphate Buffer (50 mM; pH=6)
# 3.9 g of NaH2PO4 2H2O were dissolved in a volumetric flask to 500 ml with water. The pH was adjusted to pH=6 with 3N NaOH.
# 0.5 g of hexa-decyl-trimethyl-ammonium bromide was dissolved in 100 ml phosphate buffer.
# The solution was prepared freshly. Ten microliters of H2O2 (30 wt. %) were diluted to 1 ml with water (solution A). 7.5 mg o-dianisidine 2HCl were dissolved in 45 ml of phosphate buffer and 75 μl of solution A were added.
# as §1
# The activity of MPO was measured as previously described by Williams et al. The iris-ciliary bodies were carefully dried, weighed and immersed in 1 ml of hexa-decyl-trimethyl-ammonium bromide solution. Then, the samples were sonicated for 10 sec on ice by a ultrasound homogenizer (HD 2070, Bandelin electronic), freeze-thawed three times, sonicated for 10 sec and centrifuged at 14,000 g for 10 min to remove cellular debris. An aliquot of the supernatant (40-200 μl) was diluted to 3 ml with the o-dianisidine 2HCl/H2O2 solution. The change in absorbance at 460 nm was continuously monitored for 5 min by a spectrophotometer (UV/Vis Spectrometer Lambda EZ 201; Perkin Elmer). The slope of the line (Δ/min) was determined for each sample and used to calculate the number of units of MPO in the tissue as follows:
# where ε=11.3 mM^−1. Values were expressed as units of MPO/g of tissue.
structure (smiles),measurement,setting,value
"C[C@@H]1C[C@H]2[C@@H]3CCC4=CC(=O)C=C[C@]4(C)[C@@]3(F)[C@@H](O)C[C@]2(C)[C@@]1(O)C(=O)CO [Dex, Dexamethasone, reference compound]",Pupillary diameter T2: −5 min,[1]; 0.1% topical,5.5 mm and 6.5 mm (3×) and 6.0 mm (2×) and 7.0 mm and 7.5 mm
same,Pupillary diameter T3: +115 min,[1]; 0.1% topical,5.5 mm (3×) and 6.0 mm (2×) and 4.5 mm and 5.0 mm and 6.5 mm
same,Pupillary diameter Δ(T3 − T1),[1]; 0.1% topical,−0.5 mm (3×) and −1.5 mm (2×) and 0.5 mm and 0.0 mm and −2.0 mm
same,Pupillary diameter T1: −180 min,[1]; 0.1% topical,6.0 mm and 7.0 mm (2×) and 5.5 mm (2×) and 6.5 mm (3×)
same,Clinical Score −5 min,[2]; 0.1% topical,0 (6×) and 1 (2×)
same,Clinical Score +115 min,[2]; 0.1% topical,1 (6×) and 3 (2×)
same,Percentage of eyes with clinical score 1,"[2]; 0.1% topical, +115 min, 8 eyes",75%
same,Percentage of eyes with clinical score 3,"[2]; 0.1% topical, +115 min, 8 eyes",25%
same,Clinical Score −180 min,[2]; 0.1% topical,0
same,Percentage of eyes with clinical score 0,"[2]; 0.1% topical, −5 min, 8 eyes",75%
same,Percentage of eyes with clinical score 1,"[2]; 0.1% topical, −5 min, 8 eyes",25%
same,Percentage of eyes with clinical score 0,"[2]; 0.1% topical, −180 min, 8 eyes",100%
same,"PGE2 in aqueous humor at the second paracentesis, Mean",PGE2; 0.1% topical,2.263 ng/mL
same,PGE2 in aqueous humor at the second paracentesis,PGE2; 0.1% topical,2.51 ng/ml and 2.32 ng/ml (2×) and 2.10 ng/ml and 3.03 ng/ml and 1.30 ng/ml
same,"Protein in aqueous humor at the second paracentesis, Mean",[3]; 0.1% topical,33.457 mg/mL
same,Protein in aqueous humor at the second paracentesis,[3]; 0.1% topical,31.31 mg/mL and 31.81 mg/mL and 35.95 mg/mL and 37.15 mg/mL and 32.12 mg/mL and 32.40 mg/mL
same,"PMN in aqueous humor at the second paracentesis, Mean",leukocytes (PMN); 0.1% topical,30.000 number/μl
same,PMN in aqueous humor at the second paracentesis,leukocytes (PMN); 0.1% topical,20 number/μl (3×) and 50 number/μl and 40 number/μl and 30 number/μl
same,Mean MPO Unit/g (MPO activity in iris-ciliary body samples),MPO; 0.1% treatment,0.618 Unit/g
same,MPO Unit/g (raw data of MPO activity in iris-ciliary body samples),MPO; 0.1% treatment,0.71 Unit/g and 0.60 Unit/g and 1.32 Unit/g and 0.48 Unit/g (2×) and 0.39 Unit/g and 0.45 Unit/g and 0.51 Unit/g
"CC(C(=O)O)c1ccc(-c2ccccc2)c(F)c1 (centres unmarked) [F, flurbiprofen, reference compound]",Pupillary diameter T2: −5 min,[1]; 0.03% topical,6.0 mm (3×) and 6.5 mm (3×) and 7.0 mm and 5.5 mm
same,Pupillary diameter T3: +115 min,[1]; 0.03% topical,4.0 mm and 3.5 mm and 5.5 mm (2×) and 5.0 mm (2×) and 4.5 mm and 6.0 mm
same,Pupillary diameter Δ(T3 − T1),[1]; 0.03% topical,−1.0 mm (3×) and −1.5 mm (3×) and 0.0 mm (2×)
same,Pupillary diameter T1: −180 min,[1]; 0.03% topical,5.0 mm (2×) and 7.0 mm and 6.0 mm (4×) and 5.5 mm
same,Clinical Score −5 min,[2]; 0.03% topical,0
same,Clinical Score +115 min,[2]; 0.03% topical,2
same,Percentage of eyes with clinical score 2,"[2]; 0.03% topical, +115 min, 8 eyes",100%
same,Clinical Score −180 min,[2]; 0.03% topical,0
same,Percentage of eyes with clinical score 0,"[2]; 0.03% topical, −5 min, 8 eyes",100%
same,Percentage of eyes with clinical score 0,"[2]; 0.03% topical, −180 min, 8 eyes",100%
same,"PGE2 in aqueous humor at the second paracentesis, Mean",PGE2; 0.03% topical,1.189 ng/mL
same,PGE2 in aqueous humor at the second paracentesis,PGE2; 0.03% topical,1.04 ng/ml and 0.75 ng/ml and 0.85 ng/ml and 1.11 ng/ml and 2.11 ng/ml (2×) and 0.93 ng/ml and 0.61 ng/ml
same,"PGE2 in aqueous humor, statistical comparison with CTR","PGE2; 0.03% topical, p<0.05",statistically significant versus CTR
same,"Protein in aqueous humor at the second paracentesis, Mean",[3]; 0.03% topical,20.910 mg/mL
same,Protein in aqueous humor at the second paracentesis,[3]; 0.03% topical,20.78 mg/mL and 28.80 mg/mL and 23.41 mg/mL and 20.21 mg/mL and 17.53 mg/mL and 15.12 mg/mL and 20.52 mg/mL
same,"Protein in aqueous humor, statistical comparison with CTR","[3]; 0.03% topical, p<0.001",statistical significance
same,"PMN in aqueous humor at the second paracentesis, Mean",leukocytes (PMN); 0.03% topical,30.000 number/μl
same,PMN in aqueous humor at the second paracentesis,leukocytes (PMN); 0.03% topical,50 number/μl and 40 number/μl (2×) and 20 number/μl (2×) and 10 number/μl and 30 number/μl
same,"MPO activity in iris-ciliary body, statistical comparison with CTR","MPO; 0.03% topical, p<0.01",statistical significance
same,Mean MPO Unit/g (MPO activity in iris-ciliary body samples),MPO; 0.03% treatment,0.906 Unit/g
same,MPO Unit/g (raw data of MPO activity in iris-ciliary body samples),MPO; 0.03% treatment,1.10 Unit/g and 1.70 Unit/g and 0.34 Unit/g and 0.75 Unit/g and 0.74 Unit/g and 0.63 Unit/g and 0.73 Unit/g and 1.27 Unit/g
